Data: patent US20110294728A1, “Antiviral Polypeptides” (priority 2008, published 2011)
Read-outs that look alike come from different tables or passages of the source. Where a SMILES comes first, the peptide text is derived from it. Bridges are numbered along the chain shown (N, C = ends). Where no end group is shown, it is not given here.

Assays:
wild type HIV 1 virus = assay: HIV propagation in Hu-PBL-SCID mice, wild type virus; format: in vivo, Hu-PBL-SCID transgenic mice; conditions: 20 mg/kg; peptides formulated with CADY-2c/CADY-1S1; HIV-1 DNA copies in splenocyte extracts
Method: (§1) The potency of the peptides p27 (SEQ ID NO: 25) and p16 (SEQ ID NO: 19) was assessed in vivo following intravenous challenge of Hu-PBL-SCID transgenic mice (in which human (hu) peripheral blood leukocytes (PBLs) from healthy Epstein-Barr virus (EBV)-seropositive donors are injected into severe combined immunodeficiency (SCID) mice; Mosier et al., 1988). The mice (6 to 8 week-old male mice, 5 animals per group) were infected with wild type HIV 1 virus or efavirenz-resistance HIV strain harbouring K103N and N341V mutations on reverse transcriptase. Infected mice were treated with peptides formulated with the peptide vector CADY-2c (see above) in water at a ratio 1/20, and then particles were coated with 3% of CADY-1S1 (see above), as described in International Application WO 2007/069090. Particles were injected intravenously (100 μl) every 2 days for 1 week, then HIV-1 copy were quantified by quantitative PCR. Efavirenz (a non-nucleoside reverse transcriptase inhibitor; EFZ) was used a positive drug control.

[1] = system: efavirenz-resistance HIV strain harbouring K103N and N341V mutations on reverse transcriptase; format: in vivo, Hu-PBL-SCID transgenic mice; conditions: EFZ resistance strain; 20 mg/kg/day; peptides formulated with CADY-2c/CADY-1S1
Method: as §1

HIV-1 RT = biological target: T1, HIV-1 RT (Human immunodeficiency virus type 1 group M subtype B, UniProt P03366); assay: biochemical
T1 construct: The heterodimeric p66/p51 RT was eluted with an imidazole gradient; p66 and p51 derived from p66 by proteolytic cleavage of the C-terminal RNAse H domain; made in house; host or cells: E. coli (M15 for the His-tagged subunits)
Method: RNA-dependent-DNA RT-polymerase activity was measured in a standard reaction assay using poly(rA)-(dT)15 as template/primer as described in Restle et al. (1990). Ten microliters of reverse transcriptase (RT) at 20 nM was incubated at 37° C. for 30 min with 20 μL of reaction buffer (50 mM Tris, pH 8.0, 80 mM KCl, 6 mM MgCl2, 5 mM DTT, 0.15 μM poly(rA-dT), 15 μM dTTP, 0.3 μCi 3H-dTTP). For peptide evaluation, HIV-1 RT was incubated with increasing concentrations of peptide inhibitors for […], and polymerase reaction was initiated by adding reaction buffer. Reactions were stopped by precipitation of nucleic acids with 5 ml of 20% trichloroacetic acid (TCA) solution for 2 h on ice, then filtered using a multiwell-sample collector (Millipore), and washed with 5% TCA solution. Filters were dried at 55° C. for 30 min and radionucleotide incorporation was determined by liquid scintillation spectrometry.
A series of peptides have been derived from Pep-A sequence (SEQ ID NO: 28), which is derived from HIV-1 reverse transcriptase. First, P1 peptide (SEQ ID NO: 1) was obtained by removing the N-terminal arginine of Pep-A. Then, additional peptides were generated by performing an alanine scan on P1. P1-derived peptides were evaluated using a standard polymerase RT assay. Reported data correspond to the mean of three separate experiments.

HIV-1-LAI strain = system: HIV-1-LAI strain
Method: The anti-HIV activities of the peptides were assayed according to the methods described in Roisin et al. (2004). Phytohemagglutinin-P(PHA-P)-activated peripheral blood mononuclear cells (PBMC) treated by increasing concentrations of peptide (from 100 to 0.1 nM), one hour later, were infected with hundred 50% tissue culture infectious doses (TCID50) per 100,000 cells of the HIV-1-LAI strain (Barre-Sinoussi et al., 1983). This virus was amplified in vitro on PHA-P-activated PBMC. Viral stock was titrated using PHA-P-activated PBMC, and 50% TCID50 were calculated using Kärber's formula (Kärber, 1931). Samples were maintained throughout the culture, and cell supernatants were collected at day 7 post-infection and stored at −20° C. Viral replication was measured by quantifying reverse transcriptase (RT) activity in cell culture supernatants. In parallel, cytotoxicity of the compounds was evaluated in uninfected PHA-P-activated PBMC by colorimetric 3-(4-5 dimethylthiazol-2-yl)2,5diphenyl tetrazolium bromite (MTT) assay on day 7 (as described in Mossmann, 1983). Experiments were performed in triplicate and repeated with another blood donor. Data analyses were performed using SofiMax® Pro 4.6 microcomputer software: percent of inhibition of RT activity or of cell viability were plotted vs concentration and fitted with quadratic curves; 50% effective doses (ED50) and cytotoxic doses (CD50) were calculated.
In order to avoid any limitation due to the poor ability of peptides to cross cellular membranes, they were associated to the peptide-based nanoparticle delivery system Pep-1 (SEQ ID NO: 29), at a 1/10 molar ratio.

HIV-1 integrase [2] = biological target: T2, HIV-1 integrase (Human immunodeficiency virus type 1 group M subtype B, UniProt P04585); assay: biochemical; format: binding
T2 construct: Integrase is a 32 kDA viral protein that is biologically active under a multimeric form
Method: Fluorescein-labeled peptides (40 nM) were mixed with varying concentrations of integrase in 20 mM Tris pH 7.2, 50 mM NaCl, 10 mM MgCl2, and the r values were recorded.
Effect of the different peptides on the integrase (IN) activity, DNA binding and IN/DNA dissociation were evaluated as described in Example III.1 above, using fluorescence polarization and anisotropy measurements. Binding constant of the peptide for IN was determined by steady state fluorescence and anisotropy.

HIV-1 integrase [3] = biological target: T2, HIV-1 integrase; assay: biochemical
Method: (§2) The simultaneous measurement of integrase-DNA interaction and subsequent 3′-processing activity by steady-state fluorescence anisotropy was performed as described in Guiot et al. (2006). […] After the initial DNA-binding step (performed at 25° C.), the 3′-processing activity was measured at 37° C. by fixed-time experiments: The reaction was stopped at varying times by adding SDS (0.25% final) which disrupts all IN-DNA complexes in the sample. The IN-mediated cleavage of the terminal GT dinucleotide (labeled by fluorescein on the 3′-end) leads to a significant decrease of r as compared to the r value corresponding to the fluorescein-labeled unprocessed DNA substrate. The fraction of released dinucleotide is calculated by using Eq. (1): […]

IN/DNA complexes [4] = biological target: T3, IN/DNA complexes (Human immunodeficiency virus type 1 group M subtype B, UniProt P04585); assay: DNA-binding of integrase, fluorescence anisotropy; format: biochemical, HIV-1
Method: as §2

IN/DNA complexes [5] = biological target: T3, IN/DNA complexes; assay: Dissociation of pre-formed IN-DNA substrate complexes; format: biochemical, HIV-1
Method: For dissociation experiments, IN-DNA substrate complexes were pre-formed at 25° C. before addition of peptides. The peptide-mediated dissociation of complexes was then studied at the same temperature by measuring the decrease in the r value as a function of time.

IN/LEDGF complex = IN/LEDGF complex (Human immunodeficiency virus type 1 group M subtype B, UniProt P04585); assay: Dissociation of IN/LEDGF complex (AlphaScreen, immunoprecipitation); format: biochemical
Method: Dissociation of IN/LEDGF complex was measured by fluorescence resonance energy transfer (AlphaScreen® technology) and immunoprecipitation experiments: • Amplified Luminescent Proximity Homogeneous Assay (ALPHA): when the proteins (IN and LEDGF), linked to acceptor and donor beads, interact together (i.e., are into close proximity), a photosignal (a high amplified signal with output in the 520-560 nm range) is detected; when the proteins are not in close proximity, the reactive oxygen decays and there is no detectable signal generated; • immunoprecipitation (IP) was performed using polyclonal anti LEDGF antibodies (purchased from Santa Cruz Biotechnology, USA) and polyclonal HA antibodies (purchased from Eurogentec, Belgium). Cell line expression HA-tagged integrase was using for the experiment in the presence of increasing concentrations of peptide inhibitors.

[6] = read-out: EC50 HIV-1 lai, Table 10

| Compound | HIV propagation in vivo (in words) (wild type HIV 1 virus) | reduction of viral propagation [1] | Ki (HIV-1 RT) [nM] | EC50 (HIV-1-LAI strain; [6]) [nM] | Kd (HIV-1 integrase [2]) [nM] | Ki (HIV-1 integrase [3]) [µM] | EC50 (HIV-1-LAI strain; read-out: EC50, antiviral activity, peptide complexed with Pep-1) [nM] | EC50 (HIV-1 integrase [3]) [µM] | EC50 (IN/DNA complexes [4]) [µM] | EC50 (IN/DNA complexes [5]) [µM] | EC50 (IN/LEDGF complex) [µM] | reduction of efficiency (higher Ki) relative to PAW (HIV-1 RT; relative to PAW) [fold] |
| --- | --- | --- | --- | --- | --- | --- | --- | --- | --- | --- | --- | --- |
| O=C1Nc2ccc(Cl)cc2[C@@](C#CC2CC2)(C(F)(F)F)O1 [Efavirenz, reference compound] | block HIV propagation in vivo | no effect |  |  |  |  |  |  |  |  |  |  |
| CC(C)C[C@@H]1NC(=O)[C@H](Cc2c[nH]c3ccccc23)NC(=O)[C@H](CCCCN)NC(=O)[C@H]([C@@H](C)O)NC(=O)CNC(=O)[C@@H](N)CSSC[C@@H](C(=O)O)NC(=O)[C@H](CC(C)C)NC(=O)[C@@H]2CCCN2C(=O)[C@H](Cc2c[nH]c3ccccc23)NC(=O)[C@H](C(C)C)NC(=O)[C@H](CCC(=O)O)NC(=O)[C@H]([C@@H](C)O)NC1=O [Peptide P16C1] (H-CGTKWLTEVWPLC-OH; disulfide 1-13) |  |  | 32100 | 2.5 | 90 | 4.3 |  |  |  |  |  |  |
| CC[C@H](C)[C@@H]1NC(=O)[C@H](Cc2c[nH]c3ccccc23)NC(=O)[C@H](CCC(=O)O)NC(=O)[C@H]([C@@H](C)O)NC(=O)[C@H](CC(C)C)NC(=O)[C@H](Cc2c[nH]c3ccccc23)NC(=O)[C@H](CCCCN)NC(=O)[C@H]([C@@H](C)O)NC(=O)CNC(=O)[C@@H](N)CSSC[C@@H](C(=O)O)NC(=O)[C@H](CCC(=O)O)NC(=O)[C@H](C)NC(=O)[C@H]([C@@H](C)O)NC(=O)[C@H](CC(C)C)NC(=O)[C@@H]2CCCN2C1=O [Peptide P27C1] (H-CGTKWLTEWIPLTAEC-OH; disulfide 1-16) |  |  | 42 | 0.17 | > 100000 | > 100 |  |  |  |  |  |  |
| GTKWLTEWIPL [Peptide P24] |  |  | 700 ± 50 |  | 350 |  | 2.3 | 33 | 35 | 21 | 13 |  |
| KWLTEWIPLTAEAE [Peptide P26] |  |  | 1800 ± 700 |  | 320 |  |  | 28 | 54 | 67 | > 50 | 2.5 |
